From ChEMBL document CHEMBL1146435, “Anserinones A and B: new antifungal and antibacterial benzoquinones from the coprophilous fungus Podospora anserina” (1997)
Calls of active or inactive are those of the source. The rule behind the calls is not given here.

Key:
Ascobolus = assay: Antimicrobial activity against Ascobolus furfuraceus assessed as reduction in radial growth rate at 200 ug/disk by inoculation disk assay; format: functional; design: scale not given: the % may be the effect or the level left
Staphylococcus aureus = assay: Antimicrobial activity against Staphylococcus aureus ATCC 29213 at 200 ug/disk; format: functional; settings: read-out: IZ
Candida albicans = assay: Antimicrobial activity against Candida albicans ATCC 90029 at 200 ug/disk; format: functional, organism-based
Sordaria fimicola = assay: Antimicrobial activity against Sordaria fimicola assessed as reduction in radial growth rate at 200 ug/disk by inoculation disk assay; format: functional; design: scale not given: the % may be the effect or the level left
Bacillus subtilis = assay: Antimicrobial activity against Bacillus subtilis ATCC 6051 at 200 ug/disk; format: functional; settings: read-out: IZ
[1] = Cytotoxicity against human NCI60 cells; format: functional

Structure (SMILES) | Activity (Ascobolus) [%] | zone of inhibition at 200 µg/disc (Staphylococcus aureus) [mm] | Activity (Candida albicans) | Activity (Sordaria fimicola) [%] | zone of inhibition at 200 µg/disc (Bacillus subtilis) [mm] | GI50 [1] [µM]
COC1=CC(=O)C(C)=C(C[C@H](C)O)C1=O [ANSERINONE B] | 37 | 40 | inactive | 50 | 40 | 21
COC1=CC(=O)C(C)=C(CC(C)=O)C1=O [ANSERINONE A] | 100 | 40 | inactive | 60 | 40 | 9.1
